We go through three molecules from publication PMC7516017, “Organoids to Study Intestinal Nutrient Transport, Drug Uptake and Metabolism – Update to the Human Model and Expansion of Applications” (Frontiers in Bioengineering and Biotechnology, 2020).

In one test the test system is human duodenal organoids. The test is described as follows: Live-cell imaging of intracellular calcium (Fura-2-AM). Conditions: Fura-2-AM 7μM, ratio F(λex340nm)/F(λex380nm), 100µM ATP. The test is classed as cell-based. How it is done:
(§1) 1.9. Imaging of intracellular calcium concentrations
(§2) Concentrations of substances used were: 100µM ATP (Sigma), 50mM glucose, and 50mM fructose. Using a Leica DMI6000 B inverted […]
(§3) analyzed using the Leica Application Suite Advanced Fluorescence software. Imaging of intracellular calcium concentrations was performed in human duodenal organoids.
(§4) Of note, the B27 supplement contains a n/a […]
(§5) incubated for the indicated times. Controls were not pulsed with insulin. 2. Addition of butyrate: murine colonic organoids were grown for 6 days in IC. 100µM carnitine and 1mM butyrate were added and organoids were incubated for the indicated times. Time point zero was sampled immediately after addition of butyrate and carnitine. Control organoids were not exposed to butyrate. 3. Addition of d13- […]
(§6) organoids were incubated for the indicated times. Controls were exposed to carnitine and BSA without […]
(§7) 5min) to remove remaining matrigel.
(§8) Comfort; Eppendorf, Hamburg, Germany). The samples were dried in nitrogen gas and reconstituted […]
(§9) To determine amino acid and
(§10) Analytics, Zwingen, Switzerland) was used. Data analysis was performed using Analyst 1.7® and SCIEX OS 1.4 software (Sciex).
(A change in cytosolic calcium serves as a functional read-out for many receptors and channels.)

Test [1] deals with murine large intestinal organoids. As to the kind of experiment: Acylcarnitine profiles after butyrate (LC-MS/MS). The test is classed as cell-based, mouse. Conditions: 1mM butyrate with 100µM carnitine, measured 0, 5, 10, 30, 60 min. The protocol: as §1, §2, §3, §4, §5, §6, §7, §8, §9, §10
Test [2] has as its system murine small intestinal organoids. As to the kind of experiment: Amino acid and acylcarnitine levels after insulin (LC-MS/MS). The test is classed as cell-based, mouse. To be noted: 1 μM insulin, measured after 0, 30, 60, 120 min.
Method: For live-cell imaging of intracellular calcium concentrations, organoids were loaded with 7μM Fura-2
AM (Life Technologies) in HEPES-saline buffer as used for imaging of intracellular acidification for
20 min at 37 °C and then washed 5 times with PBS (pH 7.4; 37 °C). Concentrations of substances used were: 100µM ATP (Sigma), 50mM glucose, and 50mM fructose. Using a Leica DMI6000 B inverted
fluorescence microscope (Leica Microsystems) at 20× magnification, images were captured every 5-
10s. The fluorescence ratio F(λex340nm)/ F(λex380nm) was calculated and imaging data were
Quantification of amino acid and acylcarnitine concentrations using targeted LC-MS/MS
Metabolite analyses were performed with samples from three different experiments: 1.
incubated for the indicated times. […] Addition of butyrate: murine colonic organoids were grown for 6 days in IC. 100µM carnitine and 1mM butyrate were added and organoids were incubated for the indicated times. […]
palmitate. Medium from untreated organoids was measured to verify organoids as source of […]
acylcarnitine concentrations, quantitative LC -MS/MS was applied as described previously [6, 7]. […]

`Nc1ncnc2c1ncn2[C@@H]1O[C@H](COP(=O)(O)OP(=O)(O)OP(=O)(O)O)[C@@H](O)[C@H]1O` [ATP]: in the test with human duodenal organoids, the intracellular calcium response result is on record as “increases in intracellular calcium”.

As for `CCCC(=O)O` [butyrate], the “acetylcarnitine, butyrylcarnitine and palmitoylcarnitine concentrations” value in test [1] is listed as “increasing to maximal concentrations 60 min after butyrate addition”.

As for insulin, the “tau-methylhistidine and propionylcarnitine (C3) after insulin stimulation” value in test [2] is listed as “diminished with lowest levels observed 60 min after insulin stimulation”.
